In general, IC50 refers to the concentration that gives 50% inhibition.

Molecules are shown by their SMILES.

The test deals with T1, recombinant human secreted phospholipase A2 (Homo sapiens, UniProt P14555).
T1 sequence (P14555 21-144): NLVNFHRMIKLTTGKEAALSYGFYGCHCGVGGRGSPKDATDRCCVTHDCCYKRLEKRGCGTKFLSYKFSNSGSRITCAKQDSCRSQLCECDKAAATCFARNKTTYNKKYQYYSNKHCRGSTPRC
As to the kind of experiment: chromogenic assay of recombinant human secreted phospholipase A2 inhibition. It counts as biochemical. The settings on record: diheptanoyl thio-PC substrate, pH 7.5, 40° C. for 30 minutes, absorbance at 405 nanometers, triplicate; read-out: Inhibition of human secreted PLA2 IC50 ± mean deviation. From the text:
The following chromogenic assay procedure was used to identify and evaluate inhibitors of recombinant human secreted phospholipase A2. The assay described herein has been adapted for high volume screening using 96 well microtiter plates. A general description of this assay method is found in the article, “Analysis of Human Synovial Fluid Phospholipase A2 on Short Chain Phosphatidylcholine-Mixed Micelles: Development of a Spectrophotometric Assay Suitable for a Microtiterplate Reader”, by Laure J. Reynolds, Lori L. Hughes, and Edward A Dennis, Analytical Biochemistry, 204, pp. 190-197, 1992 (the disclosure of which is incorporated herein by reference):
RACEMIC DIHEPTANOYL THIO—PC
racemic 1,2-bis(heptanoylthio)-1,2-dideoxy-sn-glycero-3-phosphorylcholine
The reaction mixture thus obtained contains lmM diheptanoly thio-PC substrate, 0.29 mm Triton X-100™ detergent, and 0.12 mm DTMB in a buffered aqueous solution at pH 7.5.
1. Add 0.2 ml reaction mixture to all wells;
2. Add 10 ul test compound (or solvent blank) to appropriate wells, mix 20 seconds;
3. Add 50 nanograms of sPLA2 (10 microliters) to appropriate wells;
4. Incubate plate at 40° C. for 30 minutes;
5. Read absorbance of wells at 405 nanometers with an automatic plate reader.
All compounds were tested in triplicate. Typically, compounds were tested at a final concentration of 5 ug/ml. […] Lack of color development at 405 nanometers evidenced inhibition. Compounds initially found to be active were reassayed to confirm their activity and, if sufficiently active, IC50 values were determined. […] In all cases, % inhibition measured at 405 nanometers generated by enzyme reactions containing inhibitors relative to the uninhibited control reactions was determined. Each sample was titrated in triplicate and result values were averaged for plotting and calculation of IC50 values. IC50 were determined by plotting log concentration versus inhibition values in the range from 10-90% inhibition.

Consider `CCc1c(NC(=O)CBr)c2c(OCC(=O)O)cccc2n1Cc1ccccc1` [Example 4, [[3-(Bromo)acetamido-2-ethyl-1-(phenylmethyl)-1H-indol-4-yl]oxy]acetic acid], for which the half-inhibitory concentration (IC50) amounted to 45 µM.

With `CCc1c(NC(N)=O)c2c(OCC(=O)O)cccc2n1Cc1ccccc1Br` [Example 8, [[2-ethyl-1-(2-bromo-phenylmethyl)-3-ureido-1H-indol-4-yl]oxy]acetic acid], the IC50 turned out to be 0.074 µM.

With `CCc1c(NC(N)=O)c2c(OCC(=O)O)cccc2n1Cc1ccccc1` [Example 1, [[2-Ethyl-1-(phenylmethyl)-3-ureido-1H-indol-4-yl]oxy]acetic acid], the half-inhibitory concentration (IC50) was 0.049 µM.

For the molecule `CCc1c(NC(N)=O)c2c(OCC(=O)O)cccc2n1Cc1ccccc1-c1ccccc1` [Example 7, [[2-ethyl-1-(2-phenyl-phenylmethyl)-3-ureido-1H-indol-4-yl]oxy]acetic acid], the half-maximal inhibitory concentration (IC50) is 0.021 µM.

`CCc1c(NC(=O)C(F)(F)F)c2c(OCC(=O)O)cccc2n1Cc1ccccc1` [Example 3, [[3-trifluoroacetamido-2-ethyl-1-(phenylmethyl)-1H-indol-4-yl]oxy]acetic acid]: the concentration for half-maximal inhibition (IC50) is 51 µM.

Turning to `CCc1c(NC(=O)C(N)=O)c2c(OCC(=O)O)cccc2n1Cc1ccccc1` [Example 6, [[2-ethyl-3-oxamide-1-(phenylmethyl)-1H-indol-4-yl]oxy]acetic acid], the 50% inhibitory concentration (IC50) worked out at 13 µM.

Take `CCc1c(NC(N)=O)c2c(OCC(=O)O)cccc2n1Cc1ccccc1-c1ccc(F)cc1` [Example 9, [[2-ethyl-1-(2-(4-fluorophenyl)-phenylmethyl)-3-ureido-1H-indol-4-yl]oxy]acetic acid]: the 50% inhibitory concentration (IC50) was 0.017 µM.

Regarding `CCc1c(NC(N)=S)c2c(OCC(=O)O)cccc2n1Cc1ccccc1` [Example 5, [[2-Ethyl-1-(phenylmethyl)-3-thioureido-1H-indol-4-yl]oxy]acetic acid], the IC50 came out at 6.8 µM.

As to `CCc1c(NC(C)=O)c2c(OCC(=O)O)cccc2n1Cc1ccccc1` [Example 2, [[3-Acetamido-2-ethyl-1-(phenylmethyl)-1H-indol-4-yl]oxy]acetic acid], the IC50 was 65 µM.

The record behind these values is US6451839B1, “Indole sPLA2 inhibitors” (Eli Lilly and Company, priority 1998, dated 2002).
